Test results from patent US11634396B2 (priority 2021, dated 2023).

Each compound was assayed against human mOR (Homo sapiens (Human), UniProt P35372) (assay: cell-based). Details: not given.
Chain of human mOR (P35372 whole entry): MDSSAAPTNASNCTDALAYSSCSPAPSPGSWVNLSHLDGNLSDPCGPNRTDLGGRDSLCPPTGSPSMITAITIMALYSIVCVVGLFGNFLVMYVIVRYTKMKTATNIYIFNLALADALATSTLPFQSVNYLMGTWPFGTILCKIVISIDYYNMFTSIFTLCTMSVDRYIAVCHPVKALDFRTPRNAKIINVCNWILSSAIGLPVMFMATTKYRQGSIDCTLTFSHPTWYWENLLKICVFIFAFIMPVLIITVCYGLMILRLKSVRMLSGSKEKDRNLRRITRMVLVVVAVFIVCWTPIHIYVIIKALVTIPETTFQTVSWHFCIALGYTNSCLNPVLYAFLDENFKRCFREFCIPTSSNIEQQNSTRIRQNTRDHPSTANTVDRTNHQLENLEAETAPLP

Compound	IC50
CN(C)[C@H](CNC(=O)C[C@H](c1ccncc1)C1CC1)Cc1ccc(O)c(Cl)c1 [Compound 277, (S)-N-((S)-3-(3-chloro-4-hydroxyphenyl)-2-(dimethylamino)propyl)-3-cyclopropyl-3-(pyridin-4-yl)propanamide]	< 300 nM
CN(C)[C@H](CNC(=O)C[C@H](c1ccncc1)C1(C(F)(F)F)CC1)Cc1ccc(O)c(Cl)c1 [Compound 278, (R)-N-((S)-3-(3-chloro-4-hydroxyphenyl)-2-(dimethylamino)propyl)-3-(pyridin-4-yl)-3-(1-(trifluoromethyl)cyclopropyl)propanamide]	< 300 nM
CN(C)[C@H](CNC(=O)C[C@@H](CC1CC1)c1cccnc1)Cc1ccc(O)c(Cl)c1 [Compound 279, (R)-N-((S)-3-(3-chloro-4-hydroxyphenyl)-2-(dimethylamino)propyl)-4-cyclopropyl-3-(pyridin-3-yl)butanamide]	< 300 nM
CN(C)[C@H](CNC(=O)C[C@H](c1cccnc1)C1CC1)Cc1ccc(O)c(Cl)c1 [Compound 281, (S)-N-((S)-3-(3-chloro-4-hydroxyphenyl)-2-(dimethylamino)propyl)-3-cyclopropyl-3-(pyridin-3-yl)propanamide]	< 300 nM
CN(C)[C@H](CNC(=O)C[C@@H](CC1CC1)c1cncnc1)Cc1ccc(O)c(Cl)c1 [Compound 282, (R)-N-((S)-3-(3-chloro-4-hydroxyphenyl)-2-(dimethylamino)propyl)-4-cyclopropyl-3-(pyrimidin-5-yl)butanamide]	< 300 nM
Cc1ncc([C@@H](CC(=O)NC[C@H](Cc2ccc(O)c(Cl)c2)N(C)C)C2(C(F)(F)F)CC2)cn1 [Compound 283, (R)-N-((S)-3-(3-chloro-4-hydroxyphenyl)-2-(dimethylamino)propyl)-3-(2-methylpyrimidin-5-yl)-3-(1-(trifluoromethyl)cyclopropyl)propanamide]	< 300 nM
CN(C)[C@H](CNC(=O)CC(c1ccncc1)C1(C(F)(F)F)CC1)Cc1ccc(O)c(Cl)c1 (stereo partly drawn) [Compound 284, N-((S)-3-(3-chloro-4-hydroxyphenyl)-2-(dimethylamino)propyl)-3-(pyridin-4-yl)-3-(1-(trifluoromethyl)cyclopropyl)propanamide]	< 300 nM
CN(C)[C@H](CNC(=O)CC(c1ncccn1)C1(C(F)(F)F)CC1)Cc1ccc(O)c(Cl)c1 (stereo partly drawn) [Compound 285, N-((S)-3-(3-chloro-4-hydroxyphenyl)-2-(dimethylamino)propyl)-3-(pyrimidin-2-yl)-3-(1-(trifluoromethyl)cyclopropyl)propanamide]	< 300 nM
CN(C)[C@H](CNC(=O)C[C@H](CC1CC1)c1cccnc1)Cc1ccc(O)c(Cl)c1 [Compound 286, (S)-N-((S)-3-(3-chloro-4-hydroxyphenyl)-2-(dimethylamino)propyl)-4-cyclopropyl-3-(pyridin-3-yl)butanamide]	< 300 nM
CN(C)[C@H](CNC(=O)CC(c1cccnc1)C1(C(F)(F)F)CC1)Cc1ccc(O)c(Cl)c1 (stereo partly drawn) [Compound 287, N-((S)-3-(3-chloro-4-hydroxyphenyl)-2-(dimethylamino)propyl)-3-(pyridin-3-yl)-3-(1-(trifluoromethyl)cyclopropyl)propanamide]	< 300 nM
CN(C)[C@H](CNC(=O)C[C@H](c1cccnc1)C1(C(F)(F)F)CC1)Cc1ccc(O)c(F)c1 [Compound 290, (R)-N-((S)-2-(dimethylamino)-3-(3-fluoro-4-hydroxyphenyl)propyl)-3-(pyridin-3-yl)-3-(1-(trifluoromethyl)cyclopropyl)propanamide]	< 300 nM
CN(C)[C@H](CNC(=O)CC(c1cccnc1)C1(C(F)(F)F)CC1)Cc1ccc(O)cc1 (stereo partly drawn) [Compound 291, N-((S)-2-(dimethylamino)-3-(4-hydroxyphenyl)propyl)-3-(pyridin-3-yl)-3-(1-(trifluoromethyl)cyclopropyl)propanamide]	< 300 nM
Cc1ccc([C@@H](CC(=O)NC[C@H](Cc2ccc(O)cc2)N(C)C)C2(C(F)(F)F)CC2)s1 [Compound 293, (S)-N-((S)-2-(dimethylamino)-3-(4-hydroxyphenyl)propyl)-3-(5-methylthiophen-2-yl)-3-(1-(trifluoromethyl)cyclopropyl)propanamide]	< 300 nM
CN(C)[C@H](CNC(=O)C[C@H](c1ccsc1)C1(C(F)(F)F)CC1)Cc1ccc(O)cc1 [Compound 294, (S)-N-((S)-2-(dimethylamino)-3-(4-hydroxyphenyl)propyl)-3-(thiophen-3-yl)-3-(1-(trifluoromethyl)cyclopropyl)propanamide]	< 300 nM
Cc1ncc([C@@H](CC(=O)NC[C@H](Cc2ccc(O)cc2)N(C)C)C2(C(F)(F)F)CC2)s1 [Compound 295, (S)-N-((S)-2-(dimethylamino)-3-(4-hydroxyphenyl)propyl)-3-(2-methylthiazol-5-yl)-3-(1-(trifluoromethyl)cyclopropyl)propanamide]	< 300 nM
CN(C)[C@H](CNC(=O)C[C@H](c1cncs1)C1(C(F)(F)F)CC1)Cc1ccc(O)cc1 [Compound 296, (S)-N-((S)-2-(dimethylamino)-3-(4-hydroxyphenyl)propyl)-3-(thiazol-5-yl)-3-(1-(trifluoromethyl)cyclopropyl)propanamide]	< 300 nM
CC(C)C[C@H](CC(=O)NC[C@H](Cc1ccc(O)cc1)N(C)C)c1cccnc1 [Compound 297, (R)-N-((S)-2-(dimethylamino)-3-(4-hydroxyphenyl)propyl)-5-methyl-3-(pyridin-3-yl)hexanamide]	< 300 nM
CN(C)[C@H](CNC(=O)C[C@H](CC1CC1)c1ccncc1)Cc1ccc(O)cc1 [Compound 298, (S)-4-cyclopropyl-N-((S)-2-(dimethylamino)-3-(4-hydroxyphenyl)propyl)-3-(pyridin-4-yl)butanamide]	< 300 nM
Cc1cc([C@@H](CC(=O)NC[C@H](Cc2ccc(O)cc2)N(C)C)C2(C(F)(F)F)CC2)ccn1 [Compound 299, (R)-N-((S)-2-(dimethylamino)-3-(4-hydroxyphenyl)propyl)-3-(2-methylpyridin-4-yl)-3-(1-(trifluoromethyl)cyclopropyl) propanamide]	< 300 nM
Cc1cncc([C@@H](CC(=O)NC[C@H](Cc2ccc(O)cc2)N(C)C)C2(C(F)(F)F)CC2)c1 [Compound 300, (R)-N-((S)-2-(dimethylamino)-3-(4-hydroxyphenyl)propyl)-3-(5-methylpyridin-3-yl)-3-(1-(trifluoromethyl)cyclopropyl)propanamide]	< 300 nM
Cc1ccc([C@@H](CC(=O)NC[C@H](Cc2ccc(O)cc2)N(C)C)C2(C(F)(F)F)CC2)cn1 [Compound 302, (R)-N-((S)-2-(dimethylamino)-3-(4-hydroxyphenyl)propyl)-3-(6-methylpyridin-3-yl)-3-(1-(trifluoromethyl)cyclopropyl) propanamide]	< 300 nM
CN(C)[C@H](CNC(=O)C[C@H](c1cccnc1)C1(C)CC1)Cc1ccc(O)cc1 [Compound 303, (S)-N-((S)-2-(dimethylamino)-3-(4-hydroxyphenyl)propyl)-3-(1-methylcyclopropyl)-3-(pyridin-3-yl)propanamide]	< 300 nM
CC(C)[C@H](CC(=O)NC[C@H](Cc1ccc(O)cc1)N(C)C)c1cccnc1 [Compound 304, (S)-N-((S)-2-(dimethylamino)-3-(4-hydroxyphenyl)propyl)-4-methyl-3-(pyridin-3-yl)pentanamide]	< 300 nM
CN(C)[C@H](CNC(=O)C[C@H](c1cccnc1)C1(C(F)(F)F)CC1)Cc1ccc(O)cc1 [Compound 306, (R)-N-((S)-2-(dimethylamino)-3-(4-hydroxyphenyl)propyl)-3-(pyridin-3-yl)-3-(1-(trifluoromethyl)cyclopropyl)propanamide]	< 300 nM
CN(C)[C@H](CNC(=O)C[C@@H](CC1CC1)c1cncnc1)Cc1ccc(O)cc1 [Compound 307, (R)-4-cyclopropyl-N-((S)-2-(dimethylamino)-3-(4-hydroxyphenyl)propyl)-3-(pyrimidin-5-yl)butanamide]	< 300 nM
CN(C)[C@H](CNC(=O)CC(c1ccncc1)C1(C(F)(F)F)CC1)Cc1ccc(O)cc1 (stereo partly drawn) [Compound 309, N-((S)-2-(dimethylamino)-3-(4-hydroxyphenyl)propyl)-3-(pyridin-4-yl)-3-(1-(trifluoromethyl)cyclopropyl)propanamide]	< 300 nM
CN(C)[C@H](CNC(=O)C[C@@H](CC1CC1)c1cccnc1)Cc1ccc(O)cc1 [Compound 310, (R)-4-cyclopropyl-N-((S)-2-(dimethylamino)-3-(4-hydroxyphenyl)propyl)-3-(pyridin-3-yl)butanamide]	< 300 nM
Cc1ncc([C@@H](CC(=O)NC[C@H](Cc2ccc(O)cc2)N(C)C)C2(C(F)(F)F)CC2)cn1 [Compound 312, (R)-N-((S)-2-(dimethylamino)-3-(4-hydroxyphenyl)propyl)-3-(2-methylpyrimidin-5-yl)-3-(1-(trifluoromethyl)cyclopropyl)propanamide]	< 300 nM
CN(C)[C@H](CNC(=O)CC(c1ncccn1)C1(C(F)(F)F)CC1)Cc1ccc(O)cc1 (stereo partly drawn) [Compound 313, N-((S)-2-(dimethylamino)-3-(4-hydroxyphenyl)propyl)-3-(pyrimidin-2-yl)-3-(1-(trifluoromethyl)cyclopropyl)propanamide]	< 300 nM

Same assay, conditions: CHO Tag-lite human mOR stable cell line; forskolin 4 μM and DAMGO at EC90; read-out: mOR cAMP Antagonist Assay IC50

Compound	IC50
CN(C)[C@H](CNC(=O)C[C@H](c1cncs1)C1CC1)Cc1ccc(O)cc1 [Compound 292, (S)-3-cyclopropyl-N-((S)-2-(dimethylamino)-3-(4-hydroxyphenyl)propyl)-3-(thiazol-5-yl)propanamide]	300 to 3000 nM
CN(C)[C@H](CNC(=O)C[C@H](c1cccnc1)C1CC1)Cc1ccc(O)cc1 [Compound 308, (S)-3-cyclopropyl-N-((S)-2-(dimethylamino)-3-(4-hydroxyphenyl)propyl)-3-(pyridin-3-yl)propanamide]	300 to 3000 nM
Cc1ncc([C@@H](CC(=O)NC[C@H](Cc2ccc(O)cc2)N(C)C)C2CC2)cn1 [Compound 311, (S)-3-cyclopropyl-N-((S)-2-(dimethylamino)-3-(4-hydroxyphenyl)propyl)-3-(2-methylpyrimidin-5-yl)propanamide]	300 to 3000 nM
